Source: the supplement of paper PMC10627819

Tests used:
Conditions in all cases: main component drawn
[1] = test system: S. aureus Newman; assay: fitness (endpoint OD595 vs no drug) (fraction); higher = more growth
How it was run: (§1)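 Bacterial growth was followed in 384-well plates seeded at OD595 0.01, with 30 µl per well, or 55 µl for S. pneumoniae, in TSB, LB Lennox or CY at 37 °C. OD595 was read every 30 min for 14 h, and each reading had the first reading subtracted as background. Fitness is the background-corrected optical density at entry into stationary phase divided by the robust mean of the no-drug control wells. This ratio is capped at 1.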

[2] = test system: S. aureus DSM 20231; assay: as above
How it was run: as §1

[3] = test system: S. pneumoniae D39V; assay: Bliss interaction score (quartile over a dose matrix) (fitness difference); higher = more antagonism (negative = synergy)
How it was run: (§2)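 Quartiles of the Bliss score were taken over technical, biological and donor/recipient replicates. That score is observed fitness minus the product of the single-drug fitness values, which were inferred from combination data. Fitness itself is OD595 at entry into stationary phase divided by the plate's robust no-drug mean, with a cap at 1.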

[4] = test system: B. subtilis 168; assay: as above
How it was run: as §2

[5] = test system: S. aureus Newman; assay: as above
How it was run: as §2

[6] = test system: S. aureus DSM 20231; assay: as above
How it was run: as §2
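Throughout, for Bliss interaction score (quartile over a dose matrix): first quartile when negative (synergy) and third quartile when positive (antagonism).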

Cc1ncc([N+](=O)[O-])n1CCO [Metronidazole] + CCCCCCCCCC(=O)N[C@@H]1[C@H]([C@@H]([C@H](O[C@H]1OC2=C3C=C4C=C2OC5=C(C=C(C=C5)[C@H]([C@H]6C(=O)N[C@@H](C7=C(C(=CC(=C7)O)OC8[C@H]([C@H]([C@@H]([C@H](O8)CO)O)O)O)C9=C(C=CC(=C9)[C@H](C(=O)N6)NC(=O)[C@@H]4NC(=O)[C@@H]1C2=CC(=CC(=C2)OC2=C(C=CC(=C2)[C@H](C(=O)N[C@H](CC2=CC(=C(O3)C=C2)Cl)C(=O)N1)N)O)O)O)C(=O)O)O[C@H]1[C@@H]([C@H]([C@@H]([C@H](O1)CO)O)O)NC(=O)C)Cl)CO)O)O [Teicoplanin]
fitness
Conditions	first compound 0.625 µg/mL	first compound 1.25 µg/mL	first compound 2.5 µg/mL
[1], partner 0.1562 µg/mL	0.976	0.979	–
[1], partner 0.3125 µg/mL	0.988	0.973	0.933
[1], partner 0.625 µg/mL	0.927	0.925	0.752
[2], partner 0.1562 µg/mL	0.967	≥ 1	≥ 1
[2], partner 0.3125 µg/mL	≥ 1	≥ 1	≥ 1
[2], partner 0.625 µg/mL	≥ 1	≥ 1	≥ 1

fitness, [1], one replicate
Conditions	first compound 0.625 µg/mL	first compound 0.781 µg/mL	first compound 1.25 µg/mL	first compound 1.562 µg/mL	first compound 2.5 µg/mL	first compound 3.124 µg/mL
partner 0.1562 µg/mL	–	≥ 1	–	≥ 1	–	≥ 1
partner 0.3125 µg/mL	–	≥ 1	–	0.961	–	0.989
partner 0.62 µg/mL	0.82	–	0.795	–	0.81	–
partner 0.625 µg/mL	–	0.845	–	0.805	–	0.836
partner 1.24 µg/mL	0.745	–	0.774	–	0.76	–
partner 2.48 µg/mL	0.492	–	0.505	–	0.486	–

Conditions	Bliss interaction score
[3]	0.126
[4]	0.0689
[5]	0.0581
[6]	0.0308
